From US20230144211A1, “ANTIFOLATE LINKER-DRUGS AND ANTIBODY-DRUG CONJUGATES” (Byondis B.V., priority 2020, published 2023)

Tests used:
[1] = tested on: BT-474 cells; assay: In vitro cell viability assay (CellTiter-Glo, 6 days); type: cell-based; settings: Homo sapiens, free antifolate drugs, Table 1a, # no full dose-response curve
Protocol: (§1) FaDu, BxPC-3, HeLa, MV4-11, and RAJI cell lines were obtained from Deutsche Sammlung von Mikroorganismen und Zellkulturen (Leipzig, Germany). Jurkat NucLight Red cells were obtained from Essen BioScience Inc. (Ann Arbor, Mich., USA). SK-BR-3 and SK-OV-3 cells were cultured in McCoys 5A medium (Lonza; Walkersville, Md., USA) supplemented with 10% v/w Fetal Bovine Serum (FBS), Heat-inactivated (HI) (Gibco-Life Technologies; Carlsbad, Calif.) and 80 U/mL Pen/Strep (Gibco-Life Technologies), at 37° C. in a humidified incubator under 5% CO2 atmosphere. SW-620 cells were similarly maintained in RPMI 1640 medium (Lonza), containing 10% v/w FBS HI and 80 U/mL Pen/Strep. A-549 cells were similarly maintained in F-12K Nutrient Mixture (1×) (Gibco-Life Technologies) media supplemented with 80 U/mL Pen/Strep and 5% v/w FBS, which was Qualified (Q) (Gibco-Life Technologies). BT-474 and AU-565 cells were similarly maintained in RPMI 1640 medium (Lonza), containing 10% v/w FBS, which was Qualified (Q) (Gibco-Life Technologies), and 80 U/mL Pen/Strep. […] Jurkat NucLight Red cells were similarly maintained in RPMI 1640 medium (Lonza), containing 10% v/w FBS HI, 80 U/mL Pen/Strep and 0.5 μg/mL Puromycin (Gibco-Life Technologies). FaDu cells were cultured in EMEM medium (Lonza) supplemented with 10% v/w FBS HI (Gibco-Life Technologies), 1× GlutaMAX (Gibco-Life Technologies), and 80 U/mL Pen/Strep (Gibco-Life Technologies), at 37° C. in a humidified incubator under 5% CO2 atmosphere.
(§2) After an overnight incubation, 10 serial log 10 dilutions of the free drugs were made in DMSO (Sigma-Aldrich). These free drug dose-response curves were 10-times further diluted in complete growth medium. For the ADCs according to the invention 10 serial log 10 dilutions were made in complete growth medium. 10 μL of a composition comprising a free drug or an ADC according to the invention was added to the assay plate (final DMSO content for free drugs was 1%). […] […] Percentage cell survival was calculated by dividing the measured luminescence for each free drug or ADC according to the concentration with the average mean of untreated cells (1% or 0.1% DMSO control (for free drugs) or 100% complete growth medium (for ADCs)) multiplied by 100.
(§3) Curves were fitted by non-linear regression using the sigmoidal dose-response equation with variable slope (four parameters) using curve-fitting software (GraphPad Prism, version 9.4.0 for Windows, GraphPad, San Diego, Calif. or Electronic Laboratory Notebook (ELN) add-in BioAssay, version 19.1.0.0218, Perkin Elmer, Waltham, Mass.). Relative IC50 values were calculated as the concentration that gives a response halfway between bottom and top of the curve, when using a 4-parameter logistic fit. Data were reported as mean IC50 value of at least one experiment performed in duplicate.

[2] = tested on: Jurkat NucLight Red cells; assay: as above; type: cell-based, human; settings: Homo sapiens, Jurkat, free antifolate drugs
Protocol: as §1
(§4) After an overnight incubation, 10 serial log 10 dilutions of the free drugs were made in DMSO (Sigma-Aldrich). These free drug dose-response curves were 10-times further diluted in complete growth medium. For the ADCs according to the invention 10 serial log 10 dilutions were made in complete growth medium. 10 μL of a composition comprising a free drug or an ADC according to the invention was added to the assay plate (final DMSO content for free drugs was 1%). […] Cell viability was assessed after 6 days using a luminescent assay kit (CellTiter-Glo™ (CTG), Promega Corporation) according to the manufacturer's instructions. Percentage cell survival was calculated by dividing the measured luminescence for each free drug or ADC according to the concentration with the average mean of untreated cells (1% or 0.1% DMSO control (for free drugs) or 100% complete growth medium (for ADCs)) multiplied by 100.
as §3

[3] = tested on: A-549 cells; assay: as above; type: cell-based; settings: Homo sapiens, A549; free antifolate drugs, Table 1a; $ steep hillslope
Protocol: (§5) Human tumor cell lines SK-BR-3, SW-620, A-549, BT-474, Jurkat Clone E6-1, AU-565, and SK-OV-3 were obtained from American Type Culture Collection (Rockville, Md., USA). FaDu, BxPC-3, HeLa, MV4-11, and RAJI cell lines were obtained from Deutsche Sammlung von Mikroorganismen und Zellkulturen (Leipzig, Germany). Jurkat NucLight Red cells were obtained from Essen BioScience Inc. (Ann Arbor, Mich., USA). SK-BR-3 and SK-OV-3 cells were cultured in McCoys 5A medium (Lonza; Walkersville, Md., USA) supplemented with 10% v/w Fetal Bovine Serum (FBS), Heat-inactivated (HI) (Gibco-Life Technologies; Carlsbad, Calif.) and 80 U/mL Pen/Strep (Gibco-Life Technologies), at 37° C. in a humidified incubator under 5% CO2 atmosphere. SW-620 cells were similarly maintained in RPMI 1640 medium (Lonza), containing 10% v/w FBS HI and 80 U/mL Pen/Strep. A-549 cells were similarly maintained in F-12K Nutrient Mixture (1×) (Gibco-Life Technologies) media supplemented with 80 U/mL Pen/Strep and 5% v/w FBS, which was Qualified (Q) (Gibco-Life Technologies). BT-474 and AU-565 cells were similarly maintained in RPMI 1640 medium (Lonza), containing 10% v/w FBS, which was Qualified (Q) (Gibco-Life Technologies), and 80 U/mL Pen/Strep. Jurkat Clone E6-1, BxPC-3, HeLa, MV4-11, and RAJI cells were similarly maintained in RPMI 1640 medium (Lonza), containing 10% v/w FBS HI and 80 U/mL Pen/Strep. Jurkat NucLight Red cells were similarly maintained in RPMI 1640 medium (Lonza), containing 10% v/w FBS HI, 80 U/mL Pen/Strep and 0.5 μg/mL Puromycin (Gibco-Life Technologies). FaDu cells were cultured in EMEM medium (Lonza) supplemented with 10% v/w FBS HI (Gibco-Life Technologies), 1× GlutaMAX (Gibco-Life Technologies), and 80 U/mL Pen/Strep (Gibco-Life Technologies), at 37° C. in a humidified incubator under 5% CO2 atmosphere.
as §4, with “Cells in complete growth medium were plated in 96-well plates (90 μL/well) and incubated at 37° C., 5% CO2 at the following cell densities: 6500 SK-BR-3, 4000 SW-620, 2500 A-549, 10000 BT-474, 3000 Jurkat Clone E6-1, 5000 AU-565, 1250 FaDu, 1250 BxPC-3, 1000 HeLa, 7500 MV4-11, 1000 RAJI, 3000 Jurkat NucLight Red, and 4000 SK-OV-3 cells per well. After” for “After”
as §3

[4] = tested on: SK-BR-3 cells; assay: as above; type: cell-based, human; settings: Homo sapiens
Protocol: as §1, §2, §3

[5] = tested on: AU-565 cells; assay: as above; type: cell-based, human; settings: Homo sapiens, AU565, free antifolate drugs, Table 1b
Protocol: as §1, §2, §3

[6] = tested on: SW-620 cells; assay: as above; type: cell-based; settings: Homo sapiens, free antifolate drugs, Table 1a
Protocol: as §1, §4, §3

[7] = tested on: Human tumor cell lines; assay: In vitro cell viability assays, free antifolate drugs, overall comparison; type: cell-based; settings: compared with talotrexin or parent compound
Protocol: as §5
as §4, with “Cells in complete growth medium were plated in 96-well plates (90 μL/well) and incubated at 37° C., 5% CO2 at the following cell densities: 6500 SK-BR-3, 4000 SW-620, 2500 A-549, 10000 BT-474, 3000 Jurkat Clone E6-1, 5000 AU-565, 1250 FaDu, 1250 BxPC-3, 1000 HeLa, 7500 MV4-11, 1000 RAJI, 3000 Jurkat NucLight Red, and 4000 SK-OV-3 cells per well. After” for “After”
as §3

[8] = tested on: FaDu cells; assay: In vitro cell viability assay (CellTiter-Glo, 6 days); type: cell-based; settings: Homo sapiens, free antifolate drugs, Table 1d
Protocol: as §1, §2, §3

[9] = tested on: BxPC-3 cells; assay: as above; type: cell-based; settings: Homo sapiens, free antifolate drugs, Table 1d
Protocol: as §1, §2, §3

[10] = tested on: SK-OV-3 cells; assay: as above; type: cell-based; settings: Homo sapiens, free antifolate drugs, Table 1a
Protocol: as §1, §4, §3

[11] = SK-BR-3, free antifolate drugs, Table 1a

Structure (SMILES) | IC50 [1] [nM] | IC50 [3] [nM] | IC50 [4, 11] [nM] | IC50 [6] [nM] | antifolate activity, comparison in words [7] | also measured
Nc1ccc(C(=O)NCCC[C@H](NC(=O)c2ccc(CCc3ccc4nc(N)nc(N)c4c3F)cc2)C(=O)O)c(-c2nnn[nH]2)c1 [XG2, (S)-5-(4-Amino-2-(1H-tetrazol-5-yl)benzamido)-2-(4-(2-(2,4-diamino-5-fluoroquinazolin-6-yl)ethyl)benzamido)pentanoic acid] |  |  |  |  |  | IC50 [8]: 0.31 nM; IC50 [9]: 0.92 nM; IC50 ([2]; 24 h, Table 1d): 0.87 nM; IC50 ([4]; SK-BR-3, 24 h, free antifolate drugs, Table 1d): 0.9 nM
Nc1ccc(C(=O)NCCC[C@H](NC(=O)c2ccc(NCc3cnc4nc(N)nc(N)c4n3)cc2)C(=O)O)cc1 [XT35, (S)-5-(4-Aminobenzamido)-2-(4-(((2,4-diaminopteridin-6-yl)methyl)amino)benzamido) pentanoic acid] |  | 16 | 3.1 | 2.5 | less active than talotrexin | 
Nc1ccc(C(=O)NCCC[C@H](NC(=O)c2ccc(CCc3ccc4nc(N)nc(N)c4c3)cc2)C(=O)O)cc1 [XJ4, (S)-5-(4-Aminobenzamido)-2-(4-(2-(2,4-diaminoquinazolin-6-yl)ethyl)benzamido)pentanoic acid] | 8.1 | ~10 | 3.4 |  | less active than talotrexin | 

Second part, led by results:

IC50 [1] [nM] | IC50 [3] [nM] | IC50 [4, 11] [nM] | IC50 [6] [nM] | Structure (SMILES) | antifolate activity, comparison in words [7] | also measured
4.3 | ~2.5 | 1.3 |  | Nc1ccc(C(=O)NCCC[C@H](NC(=O)c2ccc(NCc3cnc4nc(N)nc(N)c4n3)cc2)C(=O)O)c(-c2nn[nH]n2)c1 [XX35, (S)-5-(4-Amino-2-(2H-tetrazol-5-yl)benzamido)-2-(4-(((2,4-diaminopteridin-6-yl)methyl)amino)benzamido)pentanoic acid] |  | IC50 ([2]; Table 1b): 1.4 nM; IC50 ([4]; SK-BR-3, free antifolate drugs, Table 1b, # no full dose-response curve): 1.03 nM; IC50 [5]: 0.62 nM
 | 29 | 6.5 | 2.8 | Nc1ccc(C(=O)NCCC[C@H](NC(=O)c2ccc(CCc3cnc4nc(N)nc(N)c4n3)cc2)C(=O)O)cc1 [XX7, (S)-5-(4-Aminobenzamido)-2-(4-(2-(2,4-diaminopteridin-6-yl)ethyl)benzamido) pentanoic acid] | less active than talotrexin | 
 | 42 | 17 | 7.5 | CN(Cc1cnc2nc(N)nc(N)c2n1)c1ccc(C(=O)N[C@@H](CCCNC(=O)c2ccc(N)cc2)C(=O)O)cc1 [XX12, (S)-5-(4-aminobenzamido)-2-(4-(((2,4-diaminopteridin-6-yl)methyl)(methyl)amino)benzamido) pentanoic acid] | less active than talotrexin | 
7.5 | 4 | 2.4 |  | Nc1ccc(C(=O)NCCC[C@H](NC(=O)c2ccc(NCc3cnc4nc(N)nc(N)c4n3)cc2)C(=O)O)c(S(=O)(=O)O)c1 [XX37, (S)-5-(4-Amino-2-sulfobenzamido)-2-(4-(((2,4-diaminopteridin-6-yl)methyl)amino)benzamido) pentanoic acid] |  | 
~100 |  | ~14 |  | N#Cc1cc(N)ccc1-c1cn(CCC[C@H](NC(=O)c2ccc(NCc3cnc4nc(N)nc(N)c4n3)cc2)C(=O)O)nn1 [XX47, (S)-5-(4-(4-Amino-2-cyanophenyl)-1H-1,2,3-triazol-1-yl)-2-(4-(((2,4-diaminopteridin-6-yl)methyl)amino)benzamido)pentanoic acid] |  | IC50 [10]: > 100 nM
 | 76 | 16 | 7.2 | [N-]=[N+]=Nc1ccc(C(=O)NCCC[C@H](NC(=O)c2ccc(CCc3cnc4nc(N)nc(N)c4n3)cc2)C(=O)O)cc1 [XX5, (S)-5-(4-Azidobenzamido)-2-(4-(2-(2,4-diaminopteridin-6-yl)ethyl)benzamido) pentanoic acid] | less active than talotrexin | 
